{
  "source": "ChEMBL document CHEMBL3817817",
  "about": "“The design strategy of selective PTP1B inhibitors over TCPTP” (Bioorg Med Chem, 2016)",
  "key": {"[1]": {"molecular_target": "T1, Tyrosine-protein phosphatase non-receptor type 2 (Homo sapiens, UniProt P17706)", "T1 sequence (P17706 whole entry)": "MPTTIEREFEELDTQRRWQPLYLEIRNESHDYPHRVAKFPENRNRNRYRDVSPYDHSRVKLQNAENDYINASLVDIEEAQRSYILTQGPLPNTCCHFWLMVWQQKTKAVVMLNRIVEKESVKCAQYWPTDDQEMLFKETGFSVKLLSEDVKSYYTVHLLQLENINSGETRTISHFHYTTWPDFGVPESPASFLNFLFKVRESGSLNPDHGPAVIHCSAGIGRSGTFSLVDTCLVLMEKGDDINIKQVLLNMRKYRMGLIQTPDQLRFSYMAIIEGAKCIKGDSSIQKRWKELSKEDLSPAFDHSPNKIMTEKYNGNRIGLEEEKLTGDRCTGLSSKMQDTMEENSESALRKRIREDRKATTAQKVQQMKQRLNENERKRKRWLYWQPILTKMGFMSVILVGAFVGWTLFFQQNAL", "assay": "Inhibition of recombinant TCPTP (unknown origin) at pH 7"}, "[2]": {"molecular_target": "T1, Tyrosine-protein phosphatase non-receptor type 2", "assay": "Inhibition of TCPTP (unknown origin)"}, "Homo sapiens [3]": {"species_on_record": "Homo sapiens", "assay": "Selectivity ratio of IC50 for TCPTP (unknown origin) to IC50 for human PTP1B (1 to 288 residues)"}, "[4]": {"molecular_target": "T2, Tyrosine-protein phosphatase non-receptor type 1 (Homo sapiens, UniProt P18031)", "T2 sequence (P18031 whole entry)": "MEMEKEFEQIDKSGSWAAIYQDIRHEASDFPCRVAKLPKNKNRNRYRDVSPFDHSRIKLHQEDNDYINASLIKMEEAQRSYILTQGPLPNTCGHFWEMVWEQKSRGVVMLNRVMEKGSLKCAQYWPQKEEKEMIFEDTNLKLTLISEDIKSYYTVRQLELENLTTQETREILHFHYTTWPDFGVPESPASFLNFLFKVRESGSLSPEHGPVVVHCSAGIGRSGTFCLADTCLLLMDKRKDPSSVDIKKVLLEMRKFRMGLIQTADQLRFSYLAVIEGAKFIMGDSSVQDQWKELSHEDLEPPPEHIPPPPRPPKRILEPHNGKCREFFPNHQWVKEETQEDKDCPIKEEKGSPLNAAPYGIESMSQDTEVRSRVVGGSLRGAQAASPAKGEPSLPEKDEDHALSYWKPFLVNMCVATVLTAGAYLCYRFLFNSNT", "assay": "Inhibition of human PTP1B (1 to 288 residues) expressed in Escherichia coli BL21 (DE3) cells using p-nitrophenyl phosphate as substrate monitered every 30 secs for 15 mins by micro plate reader method"}, "Homo sapiens [5]": {"species_on_record": "Homo sapiens", "assay": "Selectivity ratio of Ki for TCPTP (unknown origin) to Ki for PTP1B catalytic domain (1 to 321 residues) (unknown origin)"}, "[6]": {"molecular_target": "T2, Tyrosine-protein phosphatase non-receptor type 1", "assay": "Inhibition of PTP1B catalytic domain (1 to 321 residues) (unknown origin) expressed in Escherichia coli BL21 (DE3) cells using p-Nitrophenyl phosphate as substrate"}, "[7]": {"molecular_target": "T2, Tyrosine-protein phosphatase non-receptor type 1", "assay": "Inhibition of PTP1B (unknown origin)"}, "[8]": {"molecular_target": "T1, Tyrosine-protein phosphatase non-receptor type 2", "assay": "Inhibition of human GST-tagged TCPTP expressed in Escherichia coli BL21 (DE3) cells using p-Nitrophenyl phosphate as substrate by microplate reader method"}, "[9]": {"molecular_target": "T2, Tyrosine-protein phosphatase non-receptor type 1", "assay": "Inhibition of human recombinant PTP1B catalytic domain expressed in Escherichia coli BL21 (DE3) cells using p-Nitrophenyl phosphate as substrate by microplate reader method"}, "Homo sapiens [10]": {"species_on_record": "Homo sapiens", "assay": "Selectivity ratio of IC50 for human GST-tagged TCPTP to IC50 for human recombinant PTP1B catalytic domain"}, "[11]": {"molecular_target": "T2, Tyrosine-protein phosphatase non-receptor type 1", "assay": "Inhibition of human recombinant PTP1B expressed in Escherichia coli using p-nitrophenyl phosphate as substrate by UV spectroscopy"}, "Homo sapiens [12]": {"species_on_record": "Homo sapiens", "assay": "Selectivity ratio of IC50 for human recombinant TCPTP (1 to 341 residues) to IC50 for human recombinant PTP1B"}, "[13]": {"molecular_target": "T1, Tyrosine-protein phosphatase non-receptor type 2", "assay": "Inhibition of human recombinant TCPTP (1 to 341 residues) expressed in Escherichia coli using p-nitrophenyl phosphate as substrate by UV spectroscopy"}, "[14]": {"molecular_target": "T1, Tyrosine-protein phosphatase non-receptor type 2", "assay": "Inhibition of human TCPTP using p-nitrophenyl phosphate as substrate by micro plate reader method"}, "Homo sapiens [15]": {"species_on_record": "Homo sapiens", "assay": "Selectivity ratio of IC50 for human TCPTP to IC50 for human recombinant PTP1B"}, "[16]": {"molecular_target": "T2, Tyrosine-protein phosphatase non-receptor type 1", "assay": "Inhibition of human recombinant PTP1B catalytic domain using p-nitrophenyl phosphate as substrate by micro plate reader method"}, "[17]": {"molecular_target": "T1, Tyrosine-protein phosphatase non-receptor type 2", "assay": "Inhibition of TCPTP (unknown origin) using p-nitrophenyl phosphate as substrate by colorimetric method"}, "Homo sapiens [18]": {"species_on_record": "Homo sapiens", "assay": "Selectivity ratio of Ki for TCPTP (unknown origin) to Ki for human PTP1B (1 to 288 residues)"}, "[19]": {"molecular_target": "T2, Tyrosine-protein phosphatase non-receptor type 1", "assay": "Inhibition of human PTP1B (1 to 288 residues) expressed in Escherichia coli BL21 (DE3) cells using p-nitrophenyl phosphate as substrate by colorimetric method"}, "[20]": {"molecular_target": "T1, Tyrosine-protein phosphatase non-receptor type 2", "assay": "Inhibition of human TCPTP (1 to 296 residues) catalytic domain expressed in Escherichia coli BL21 cells using fluorescein diphosphate as substrate by microplate reader method"}},
  "data": [
    {"smiles": "O=C(O)C(=O)Nc1sc2c(c1C(=O)O)CCN(CCc1ccccc1)C2", "values": [
      {"measurement": "Ki", "setting": "[1]", "value": 7.2, "unit": "µM"}
    ]},
    {"smiles": "COC(=O)c1c(O)cccc1OC/C=C/c1ccc(F)c(-c2cc(C(=O)O)no2)c1", "values": [
      {"measurement": "IC50", "setting": "[2]", "value": 164, "unit": "µM"},
      {"measurement": "Ratio IC50", "setting": "Homo sapiens [3]", "value": 23.8},
      {"measurement": "IC50", "setting": "[4]", "value": 6.9, "unit": "µM"}
    ]},
    {"smiles": "CC(=O)N[C@H](Cc1ccc(N(C(=O)C(=O)O)c2ccccc2C(=O)O)c2ccccc12)C(=O)NCCCCCOc1cc2ccccc2cc1C(=O)O", "values": [
      {"measurement": "IC50", "setting": "[2]", "value": 0.049, "unit": "µM"}
    ]},
    {"smiles": "NC(=O)[C@H](Cc1ccc(C(F)(F)P(=O)(O)O)cc1)NC(=O)[C@H](Cc1ccc(O)cc1)NC(=O)Cc1ccc(C(F)(F)P(=O)(O)O)cc1", "values": [
      {"measurement": "Ki", "setting": "[2]", "value": 0.02, "unit": "µM"},
      {"measurement": "Ratio Ki", "setting": "Homo sapiens [5]", "value": 4.08},
      {"measurement": "Ki", "setting": "[6]", "value": 0.0049, "unit": "µM"}
    ]},
    {"smiles": "COC(=O)c1c(O)cccc1OC/C=C/c1cccc(-c2onc(C(=O)O)c2CO)c1", "values": [
      {"measurement": "IC50", "setting": "[2]", "value": 19.2, "unit": "µM"},
      {"measurement": "IC50", "setting": "[7]", "value": 0.92, "unit": "µM"}
    ]},
    {"smiles": "COC(=O)[C@H](Cc1ccc(O)cc1)n1cc(CO[C@H]2[C@@H](OCc3ccccc3)[C@@H](OC)O[C@H](COCc3ccccc3)[C@H]2OCc2cn([C@@H](Cc3ccc(O)cc3)C(=O)OC)nn2)nn1", "values": [
      {"measurement": "IC50", "setting": "[8]", "value": 59.6, "unit": "µM"},
      {"measurement": "IC50", "setting": "[9]", "value": 9.6, "unit": "µM"},
      {"measurement": "Ratio IC50", "setting": "Homo sapiens [10]", "value": 6.2}
    ]},
    {"smiles": "O=C(O)C(=O)c1ccc(OCc2ccc(COc3ccc(C(=O)C(=O)O)cc3)c(C(=O)Nc3ccc(Oc4ccccc4)cc3)c2)cc1", "values": [
      {"measurement": "IC50", "setting": "[11]", "value": 1.5, "unit": "µM"},
      {"measurement": "Ratio IC50", "setting": "Homo sapiens [12]", "value": 1.6},
      {"measurement": "IC50", "setting": "[13]", "value": 2.4, "unit": "µM"}
    ]},
    {"smiles": "CO[C@H]1O[C@H](Cn2cc(NC(=O)c3cccc(C(=O)Nc4cn(C[C@H]5O[C@H](OC)[C@H](OCc6ccccc6)[C@H](OCc6ccccc6)[C@@H]5OCc5ccccc5)nn4)c3)nn2)[C@@H](OCc2ccccc2)[C@@H](OCc2ccccc2)[C@H]1OCc1ccccc1", "values": [
      {"measurement": "IC50", "setting": "[14]", "value": 15.5, "unit": "µM"},
      {"measurement": "Ratio IC50", "setting": "Homo sapiens [15]", "value": 10.3},
      {"measurement": "IC50", "setting": "[16]", "value": 1.5, "unit": "µM"}
    ]},
    {"smiles": "CCCCCNC(=O)[C@H](Cc1ccc(C(=O)C(=O)Nc2ccccc2C(=O)O)c(/C=C/C(N)=O)c1)NS(C)(=O)=O", "values": [
      {"measurement": "Ki", "setting": "[17]", "value": 0.16, "unit": "µM"},
      {"measurement": "Ratio Ki", "setting": "Homo sapiens [18]", "value": 0.94},
      {"measurement": "Ki", "setting": "[19]", "value": 0.17, "unit": "µM"}
    ]},
    {"smiles": "COC(=O)c1ccc(C(C/C=C/c2ccccc2)(Cc2ccc(C(F)(F)P(=O)(O)O)cc2)n2nnc3ccccc32)cc1", "note": "(stereo unspecified)", "values": [
      {"measurement": "IC50", "setting": "[20]", "value": 0.087, "unit": "µM"}
    ]},
    {"smiles": "CO[C@H]1O[C@H](COCc2ccccc2)[C@@H](OCc2ccccc2)[C@H](OCc2cn(CCCOc3ccc(O)c(C(=O)O)c3)nn2)[C@H]1OCc1cn(CCCOc2ccc(O)c(C(=O)O)c2)nn1", "values": [
      {"measurement": "IC50", "setting": "[14]", "value": 54.3, "unit": "µM"},
      {"measurement": "Ratio IC50", "setting": "Homo sapiens [15]", "value": 7.05},
      {"measurement": "IC50", "setting": "[16]", "value": 7.7, "unit": "µM"}
    ]}
  ]
}
